“Also recorded” adds a separate entry of the source. Numbered stars: 1 amine (or outer) side, 2 acyl side, 3 side chain; on linkers, the order of the positions; unused ones are H or OH. Square brackets hold non-standard residues; d marks the D form. Side chains are listed from the residue outwards. Peptide text beside a SMILES is read from it. * marks the point of attachment. Isobutyryl(2-(3-CN-5-F-Ph)) = CC(C)(C(=O)*)c1cc(F)cc(C#N)c1; C20 diacid = O=C(O)CCCCCCCCCCCCCCCCCCC(=O)*; γGlu = O=C(O)[C@H](CCC(=O)[*:2])N[*:1]; AEEA = NCCOCCOCC(=O)O; Aib = CC(C)(N)C(=O)O; βAla = NCCC(=O)O
How the values were obtained:
[1] = Phase 1 MD Cohorts 11 and 12: safety, tolerability, disposition; format: in vivo, human
Method: The primary objective of this study is to determine the safety and tolerability of CT-388 in participants with and without type 2 diabetes mellitus (T2DM) when administered once weekly over 12 consecutive weeks for Cohorts 11 and 14 with titrated dosing (and additionally, up to 24 weeks for Cohorts 12 and 13).
The cohorts in the MD QW study are as follows. • Cohort 11: Once weekly dose administered SC in the abdomen across 12 consecutive weeks with CT-388 or matched placebo doses of 5.0 mg administered for the first 3 weeks and then titrated to 8.0 mg for the duration of the treatment period. If a participant(s) experiences moderate to severe tolerability issues after the third dose of 5 mg, the same 5 mg dose may be continued for up to an additional 2 weeks, i.e., up-titration to 8 mg may be attempted after the fourth or fifth 5 mg dose. If participant(s) still unable to tolerate 8 mg by Day 36, then that participant(s) may continue at 5 mg for the remaining duration of the treatment period. • Cohorts 12 and 13: Once weekly dose administered SC in the abdomen titrated across 12 consecutive weeks with CT-388 or matched placebo doses of: • 5.0 mg at Day 1 and Day 8 • 8.0 mg at Day 15 and Day 22 • 12.0 mg (or 8.0 mg based on tolerability) at Day 29 and Day 36 • 17.0 mg (or 12.0 mg based on tolerability) at Day 43 and Day 50 • 22.0 mg (or 12.0 mg or 17.0 mg based on tolerability) at Day 57. • If at 22 mg on Day 57, continue that dose for the duration of the treatment period. • If at 12 mg or 17 mg on Day 57, titration to the corresponding next higher dose level may be attempted on a weekly basis based on the individual's tolerability (e.g., if on Day 57, 12 mg dose was administered and tolerated, on Day 64, dose of 17 mg may be attempted). • If not able to tolerate, continue at the previously tolerated dose level until the following week (e.g., to Day 71), at which point another attempt can be made to the next higher dose level. • Attempts to the next higher dose level can continue to be made until Day 78. The dose level achieved at Day 78 should be maintained for an additional 12 weeks of weekly dosing in the extension period, resulting in a cumulative of 24 weeks of total doses for participants in Cohorts 12 and 13. At any time during the extension period, if the maintenance dose is not tolerated, then that dose may be either lowered by one corresponding dose level (e.g., if at 22 mg, decrease to 17 mg; if at 17 mg decrease to 12 mg), and/or the dosing may be withheld for up to 2 weeks. Following this temporary dose adjustment/withholding period, attempt to titrate back up to the previous (higher) dose level should be made. […]

[2] = chronic toxicology, repeat dosing 39 weeks; format: in vivo; details: monkeys
Text: Thus, CT-388 can be a potent drug that induces significant weight loss and helps achieve optimal glycemic control, with acceptable tolerability, in overweight or obese adults with or without T2DM or other weight-related comorbidities. CT-388 can potentially be used as a non-invasive alternative to bariatric surgery for weight management.

[3] = Cohort 12, planned target 22 mg

**Q.** With `CC[C@H](C)[C@H](NC(=O)[C@H](CC(C)C)NC(=O)[C@H](Cc1c[nH]c2ccccc12)NC(=O)[C@H](CCC(N)=O)NC(=O)[C@@H](NC(=O)[C@H](Cc1ccccc1)NC(=O)[C@H](C)NC(=O)[C@H](CCCCNC(=O)COCCOCCNC(=O)COCCOCCNC(=O)CC[C@H](NC(=O)CCCCCCCCCCCCCCCCCCC(=O)O)C(=O)O)NC(=O)[C@H](CCC(N)=O)NC(=O)[C@H](C)NC(=O)[C@@H](NC(=O)[C@H](CCCCN)NC(=O)[C@H](CC(=O)O)NC(=O)[C@H](CC(C)C)NC(=O)C(C)(C)NC(=O)[C@@H](NC(=O)[C@H](CO)NC(=O)[C@H](Cc1ccc(O)cc1)NC(=O)[C@H](CC(=O)O)NC(=O)[C@H](CO)NC(=O)[C@@H](NC(=O)[C@H](Cc1ccccc1)NC(=O)[C@@H](NC(=O)CNC(=O)[C@H](CCC(=O)O)NC(=O)CCNC(=O)C(C)(C)c1cc(F)cc(C#N)c1)[C@@H](C)O)[C@@H](C)O)[C@@H](C)CC)[C@@H](C)CC)C(C)C)C(=O)N[C@@H](C)C(=O)NCC(=O)NCC(=O)N1CCC[C@H]1C(=O)N[C@@H](CO)C(=O)N[C@@H](CO)C(=O)NCC(=O)N[C@@H](C)C(=O)N1CCC[C@H]1C(=O)N1CCC[C@H]1C(=O)N1CCC[C@H]1C(=O)N[C@@H](CO)C(N)=O` [CT-388] ({Isobutyryl(2-(3-CN-5-F-Ph))-βAla}-EGTFTSDYSI[Aib]LDKIAQK([AEEA-AEEA-γGlu-C20 diacid])AFVQWLIAGGPSSGAPPPS-NH2) as the compound, how does the “SAEs or severe treatment related GI-related AEs” value ([1]; CT-388 participants, up to 24 weeks) read?
**A.** No SAEs or severe treatment related GI-related AEs; also recorded: No SAEs or severe treatment related GI-related TEAE

**Q.** What about the “patients dosed per planned path and completed treatment on 22 mg” value [1, 3] of the same compound?
**A.** 75%

**Q.** What about the “patients with dose down-titration who completed treatment on 12 mg” value [1, 3] of the same compound?
**A.** 25%

**Q.** And the safety and tolerability ([1]; up to 24 weeks of treatment, up to 22 mg SC QW)?
**A.** generally safe and well-tolerated

**Q.** And the “tolerated dosing exceeds the pharmacologically active dose” value ([2]; 39-weeks)?
**A.** 100 fold

**Q.** And the “tolerability, chronic toxicology” value ([2]; repeat dosing over 39-weeks)?
**A.** well tolerated

Reference: US20240390464A1, “Treatment of Adults With Overweight or Obesity With or Without Weight-Related Comorbidities” (Carmot Therapeutics Inc., priority 2023, published 2024)
